Experimental data published in US6114310A, “Efflux pump inhibitors” (priority 1998, dated 2000).

System: Pseudomonas aeruginosa PAM1001
Experiment: microbe, parasite or virus in culture
Format: cell-based
Outline: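 Checkerboard broth microdilution (NCCLS) with the efflux pump inhibitor and levofloxacin, each diluted along one axis of the plate, in Mueller Hinton Broth. Inoculum 5×10^5 CFU/ml from early-log culture; incubation 20 h at 35° C. Growth read at 650 nm and visually.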

[1] = Table 1, EPI Conc. μg/ml (number not given; column between 10 and 40 μg/ml)
[2] = Table 2, EPI Conc. μg/ml (number not given; column between 10 and 40 μg/ml)
[3] = Table 3, EPI Conc. μg/ml (number not given; column between 10 and 40 μg/ml)
[4] = Table 4, EPI Conc. μg/ml (number not given; column between 10 and 40 μg/ml)

Row | Substance | Levofloxacin MIC Against P. aeruginosa PAM1001 in Presence of Efflux Pump Inhibitor (EPI), Minimum Inhibitory Concentration (Table 1, EPI Conc. 0 μg/ml) | Levofloxacin MIC Against P. aeruginosa PAM1001 in Presence of Efflux Pump Inhibitor (EPI), Minimum Inhibitory Concentration (Table 1, EPI Conc. 0.625 μg/ml) | Levofloxacin MIC Against P. aeruginosa PAM1001 in Presence of Efflux Pump Inhibitor (EPI), Minimum Inhibitory Concentration (Table 1, EPI Conc. 5 μg/ml) | Levofloxacin MIC Against P. aeruginosa PAM1001 in Presence of Efflux Pump Inhibitor (EPI), Minimum Inhibitory Concentration (Table 1, EPI Conc. 10 μg/ml) | Levofloxacin MIC Against P. aeruginosa PAM1001 in Presence of Efflux Pump Inhibitor (EPI), Minimum Inhibitory Concentration (Table 1, EPI Conc. 40 μg/ml) | Levofloxacin MIC Against P. aeruginosa PAM1001 in Presence of Efflux Pump Inhibitor (EPI), Minimum Inhibitory Concentration (Table 1, EPI Conc. […]) | Levofloxacin MIC Against P. aeruginosa PAM1001 in Presence of Efflux Pump Inhibitor (EPI), Minimum Inhibitory Concentration [1] | Levofloxacin MIC Against P. aeruginosa PAM1001 in Presence of Efflux Pump Inhibitor (EPI), Minimum Inhibitory Concentration (Table 2, EPI Conc. 0 μg/ml) | Levofloxacin MIC Against P. aeruginosa PAM1001 in Presence of Efflux Pump Inhibitor (EPI), Minimum Inhibitory Concentration (Table 2, EPI Conc. 0.625 μg/ml) | Levofloxacin MIC Against P. aeruginosa PAM1001 in Presence of Efflux Pump Inhibitor (EPI), Minimum Inhibitory Concentration (Table 2, EPI Conc. 5 μg/ml) | Levofloxacin MIC Against P. aeruginosa PAM1001 in Presence of Efflux Pump Inhibitor (EPI), Minimum Inhibitory Concentration (Table 2, EPI Conc. 10 μg/ml) | Levofloxacin MIC Against P. aeruginosa PAM1001 in Presence of Efflux Pump Inhibitor (EPI), Minimum Inhibitory Concentration (Table 2, EPI Conc. 40 μg/ml) | Levofloxacin MIC Against P. aeruginosa PAM1001 in Presence of Efflux Pump Inhibitor (EPI), Minimum Inhibitory Concentration (Table 2, EPI Conc. […]) | Levofloxacin MIC Against P. aeruginosa PAM1001 in Presence of Efflux Pump Inhibitor (EPI), Minimum Inhibitory Concentration [2] | Levofloxacin MIC Against P. aeruginosa PAM1001 in Presence of Efflux Pump Inhibitor (EPI), Minimum Inhibitory Concentration (Table 3, EPI Conc. 0 μg/ml) | Levofloxacin MIC Against P. aeruginosa PAM1001 in Presence of Efflux Pump Inhibitor (EPI), Minimum Inhibitory Concentration (Table 3, EPI Conc. 0.625 μg/ml) | Levofloxacin MIC Against P. aeruginosa PAM1001 in Presence of Efflux Pump Inhibitor (EPI), Minimum Inhibitory Concentration (Table 3, EPI Conc. 5 μg/ml) | Levofloxacin MIC Against P. aeruginosa PAM1001 in Presence of Efflux Pump Inhibitor (EPI), Minimum Inhibitory Concentration (Table 3, EPI Conc. 10 μg/ml) | Levofloxacin MIC Against P. aeruginosa PAM1001 in Presence of Efflux Pump Inhibitor (EPI), Minimum Inhibitory Concentration (Table 3, EPI Conc. 40 μg/ml) | Levofloxacin MIC Against P. aeruginosa PAM1001 in Presence of Efflux Pump Inhibitor (EPI), Minimum Inhibitory Concentration [3] | other results
1 | D-Lysyl-β-N-(Cyclohexylmethyl)alanine Quinoline-3-amide Trifluoroacetate [Example 18] | 4 µg/mL | 4 µg/mL | 4 µg/mL | 2 µg/mL | 0.25 µg/mL | 4 µg/mL | 0.50 µg/mL | 4 µg/mL | 4 µg/mL | 4 µg/mL | 2 µg/mL | 0.125 µg/mL | 4 µg/mL | 0.125 µg/mL | 4 µg/mL | 4 µg/mL | 1 µg/mL | 0.50 µg/mL | 0.03 µg/mL | 0.03 µg/mL | Levofloxacin MIC Against P. aeruginosa PAM1001 in Presence of Efflux Pump Inhibitor (EPI), Minimum Inhibitory Concentration (Table 4, EPI Conc. 0 μg/ml): 4 µg/mL; Levofloxacin MIC Against P. aeruginosa PAM1001 in Presence of Efflux Pump Inhibitor (EPI), Minimum Inhibitory Concentration (Table 4, EPI Conc. 0.625 μg/ml): 4 µg/mL; Levofloxacin MIC Against P. aeruginosa PAM1001 in Presence of Efflux Pump Inhibitor (EPI), Minimum Inhibitory Concentration (Table 4, EPI Conc. 5 μg/ml): 2 µg/mL; Levofloxacin MIC Against P. aeruginosa PAM1001 in Presence of Efflux Pump Inhibitor (EPI), Minimum Inhibitory Concentration (Table 4, EPI Conc. 10 μg/ml): 0.50 µg/mL; Levofloxacin MIC Against P. aeruginosa PAM1001 in Presence of Efflux Pump Inhibitor (EPI), Minimum Inhibitory Concentration (Table 4, EPI Conc. 40 μg/ml): 0.25 µg/mL; Levofloxacin MIC Against P. aeruginosa PAM1001 in Presence of Efflux Pump Inhibitor (EPI), Minimum Inhibitory Concentration (Table 4, EPI Conc. […]): 4 µg/mL; Levofloxacin MIC Against P. aeruginosa PAM1001 in Presence of Efflux Pump Inhibitor (EPI), Minimum Inhibitory Concentration [4]: 0.125 µg/mL
2 | D-Ornithyl-D-β-(3-quinolinyl)alanine 2,3-trimethylenepyridyl-5-amide [Compound 41 (Table 2)] | 4 µg/mL | 4 µg/mL | 0.125 µg/mL | 0.06 µg/mL | 0.015 µg/mL | 2 µg/mL | 0.015 µg/mL | 4 µg/mL | 4 µg/mL | 2 µg/mL | 1 µg/mL | 0.50 µg/mL | 4 µg/mL | 0.25 µg/mL | 4 µg/mL | 4 µg/mL | 4 µg/mL | 2 µg/mL | 0.50 µg/mL | 1 µg/mL | Levofloxacin MIC Against P. aeruginosa PAM1001 in Presence of Efflux Pump Inhibitor (EPI), Minimum Inhibitory Concentration (Table 3, EPI Conc. […]): 4 µg/mL; Levofloxacin MIC Against P. aeruginosa PAM1001 in Presence of Efflux Pump Inhibitor (EPI), Minimum Inhibitory Concentration (Table 4, EPI Conc. 0 μg/ml): 4 µg/mL; Levofloxacin MIC Against P. aeruginosa PAM1001 in Presence of Efflux Pump Inhibitor (EPI), Minimum Inhibitory Concentration (Table 4, EPI Conc. 0.625 μg/ml): 4 µg/mL; Levofloxacin MIC Against P. aeruginosa PAM1001 in Presence of Efflux Pump Inhibitor (EPI), Minimum Inhibitory Concentration (Table 4, EPI Conc. 5 μg/ml): 2 µg/mL; Levofloxacin MIC Against P. aeruginosa PAM1001 in Presence of Efflux Pump Inhibitor (EPI), Minimum Inhibitory Concentration (Table 4, EPI Conc. 10 μg/ml): 0.50 µg/mL; Levofloxacin MIC Against P. aeruginosa PAM1001 in Presence of Efflux Pump Inhibitor (EPI), Minimum Inhibitory Concentration (Table 4, EPI Conc. […]): 4 µg/mL; Levofloxacin MIC Against P. aeruginosa PAM1001 in Presence of Efflux Pump Inhibitor (EPI), Minimum Inhibitory Concentration [4]: 0.50 µg/mL
